This is an account of results in US10973748B2, “Compositions and methods for lightening skin and reducing hyperpigmentation” (Versitech Limited, priority 2016, dated 2021).

For data set [1], the system named is MelanoDerm (Mel-300-A) epidermal equivalents containing melanocytes. Description: Fontana-Masson silver staining of artificial skin model. The class given is cell-based, human. The following applies: day 14, rapamycin 2.5 μM, 6-CEPN 10 μM. As for the experimental part: (§1) Epidermal equivalents containing melanocytes (Mel-300-A) were maintained according to the manufacturer's instructions. Mel-300-A tissue was cultured in EPI-100-NMM-113 medium for 14 days. Agents were dissolved in tissue culture medium and changed every other day. The test agents were either (1) rapamycin (2.5 μM), as the positive control in depigmentation, (2) 6-CEPN (10 μM), or (3) 8-CEPQ (5 μM). The concentration of rapamycin used was lower than 6-CEPN and 8-CEPQ, as rapamycin is toxic to cells at higher concentration. Pigmentation of these skin equivalents was compared against treatment of cells with a culture medium only (denoted as “vehicle”). Tissue viability was assessed on day 14 by CCK-8 assay as described in Example 1. On day 14, single tissues were harvested and photographed. The L* parameter was used to evaluate skin lightening or darkening. The lighter the skin, the greater the L* value. ΔL* value was measured by a Chroma Meter CR400 (Konica Minolta) for an evaluation of lightening as a function of time. Three tissues for each treatment were frozen for the Solvable Melanin assay (Bessou-Touya et al., “Chimeric human epidermal reconstructs to study the role of melanocytes and keratinocytes in pigmentation and photoprotection.” Journal of investigative dermatology 111(6):1103-1108 (1998)). Additional tissues were fixed by 10% formanin. For melanin staining in paraffin-embedded tissues, Fontana-Masson silver staining was used as previously detailed (Barbosa et al., “A simple and economical modification of the Masson-Fontana method for staining melanin granules and enterochromaffin cells.” Stain technology 59(4):193-196 (1984)).

Data set [2] has the same test system. Description: Tissue viability of artificial skin model (CCK-8). To be noted: whole treatment period (14 days), rapamycin 2.5 μM, 6-CEPN 10 μM, 8-CEPQ 5 μM. The class given is cell-based, human. The protocol:
as §1

Data set [3] shares this test system. The data set can be described thus: Depigmentation in artificial skin model: brightness and L* value. The class given is cell-based, human. The following applies: 6-CEPN 10 μM, 8-CEPQ 5 μM. As for the experimental part: as §1
The next data set concerns the target T1, tyrosinase (Mus musculus, UniProt P11344).
T1 construct: endogenous in cells; host or cells: melan-a cells
T1 sequence (P11344 19-533): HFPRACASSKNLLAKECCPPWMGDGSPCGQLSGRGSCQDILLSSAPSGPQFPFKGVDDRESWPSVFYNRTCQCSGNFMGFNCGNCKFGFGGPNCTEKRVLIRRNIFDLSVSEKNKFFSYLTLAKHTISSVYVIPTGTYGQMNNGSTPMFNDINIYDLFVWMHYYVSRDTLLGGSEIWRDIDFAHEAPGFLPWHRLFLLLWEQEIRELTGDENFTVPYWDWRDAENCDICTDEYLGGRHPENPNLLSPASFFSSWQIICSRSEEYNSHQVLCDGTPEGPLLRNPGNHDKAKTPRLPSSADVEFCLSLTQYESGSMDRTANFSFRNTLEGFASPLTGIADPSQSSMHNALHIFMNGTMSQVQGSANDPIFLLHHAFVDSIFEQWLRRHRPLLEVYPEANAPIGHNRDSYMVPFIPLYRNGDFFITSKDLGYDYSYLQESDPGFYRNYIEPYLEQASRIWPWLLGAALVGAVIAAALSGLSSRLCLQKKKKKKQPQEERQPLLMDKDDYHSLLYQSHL
Description: Cellular tyrosinase activity assay (L-DOPA oxidation in cell lysates). Format: cell-based, murine. The following applies: melan-a cells, α-MSH, 72 hrs; 6-CEPN 10 or 20 μM, 8-CEPQ 2.5 or 5 μM. As for the experimental part:
Cellular tyrosinase activity was determined by measuring the oxidation of L-3,4-dihydroxyphenylalanine (L-DOPA) to dopachrome in cell lysates. Melan-a cells (1.5×10^5 cells/well) were plated in 1 mL of culture medium in a 24-well multidishes for at least 24 hrs prior to use. The cells were treated with α-MSH (1 μM) alone or with α-MSH plus different concentrations of testing agents for 72 hrs. The cells were washed with cold PBS and lysed in 900 μL of PBS with 1% Triton X-100. After being freeze-thawed at −80° C. for 30 min followed by 25° C. for 30 min, 100 μL of 10 mM L-DOPA was then added to each well. Following incubation at 37° C. for 1 hr, the absorbance of the agents was measured at 490 nm using Victor X4 Multilabel Plate Reader (PerkinElmer, Mass., USA).

The test system of the next data set is melan-a cells. The data set can be described thus: Melanosome autophagy by fluorescence microscopy. The class given is cell-based, murine. The following applies: α-MSH, rapamycin 0.5 μM 24 hrs, 6-CEPN 10 μM, 8-CEPQ 5 μM 72 hrs. The protocol:
Melan-a cells (1.5×10^5 cells/well) were seeded on coverslips in 6-well palte. The cells were treated with (1) α-MSH (1 μM) alone for 24 hrs, (2) α-MSH (1 μM) plus rapamycin (0.5 μM) for 24 hrs, (3) α-MSH (1 μM) plus 6-CEPN (10 μM), or (3) α-MSH (1 μM) plus 8-CEPQ (5 μM) for 72 hrs. Culture medium was removed carefully after the cells reached 50%˜70% level of confluence. Cells were stained by microscopy dual detection reagents (autophagy detection kit, Abcam) for 30 mins at 37° C. The stained cells were analyzed by wide-field fluorescence microscopy (60× magnification). Standard FITC filter and DAPI filter were set to image the autophagic signal and the nuclear signal, respectively.

For data set [4], the system named is MelanoDerm (Mel-300-A) epidermal equivalents containing melanocytes. Description: Solvable Melanin assay in artificial skin model. The following applies: 14 days, rapamycin 2.5 μM, 6-CEPN 10 μM, 8-CEPQ 5 μM. The class given is cell-based, human. As for the experimental part:
Epidermal equivalents containing melanocytes (Mel-300-A) were maintained according to the manufacturer's instructions. Mel-300-A tissue was cultured in EPI-100-NMM-113 medium for 14 days. Agents were dissolved in tissue culture medium and changed every other day. The test agents were either (1) rapamycin (2.5 μM), as the positive control in depigmentation, (2) 6-CEPN (10 μM), or (3) 8-CEPQ (5 μM). The concentration of rapamycin used was lower than 6-CEPN and 8-CEPQ, as rapamycin is toxic to cells at higher concentration. Pigmentation of these skin equivalents was compared against treatment of cells with a culture medium only (denoted as “vehicle”). Tissue viability was assessed on day 14 by CCK-8 assay as described in Example 1. On day 14, single tissues were harvested and photographed. The L* parameter was used to evaluate skin lightening or darkening. The lighter the skin, the greater the L* value. ΔL* value was measured by a Chroma Meter CR400 (Konica Minolta) for an evaluation of lightening as a function of time. Three tissues for each treatment were frozen for the Solvable Melanin assay (Bessou-Touya et al., “Chimeric human epidermal reconstructs to study the role of melanocytes and keratinocytes in pigmentation and photoprotection.” Journal of investigative dermatology 111(6):1103-1108 (1998)). Additional tissues were fixed by 10% formanin. […]

Structures are written as SMILES.

`CO[C@H]1C[C@@H]2CC[C@@H](C)[C@@](O)(O2)C(=O)C(=O)N2CCCC[C@H]2C(=O)O[C@H]([C@H](C)C[C@@H]2CC[C@@H](O)[C@H](OC)C2)CC(=O)[C@H](C)/C=C(\C)[C@@H](O)[C@@H](OC)C(=O)[C@H](C)C[C@H](C)/C=C/C=C/C=C/1C` [rapamycin, reference compound]: in data set [1], the “thickness of basal layer of tissue” value is on record as “thinner than 6-CEPN-treated or non-treated control groups”. Further, in data set [2], the “cytotoxicity (tissue viability)” value is “without significant cytotoxicity”.
For `O=c1c(O)c(-c2ccc(O)c(O)c2)oc2c(/C=C/c3ccccc3)c(O)cc(O)c12` [8-CEPQ, 8-C-(E-phenylethenyl)-quercetin], in data set [3] (14 days, rapamycin 2.5 μM), the “brightness of the tissues (visual examination)” value is listed as “increased the brightness of the tissues”. For the same compound, in data set [3] (day 14, rapamycin 2.5 μM), the “L* value vs negative control” value is on record as “increased the L* value”. On tyrosinase, the tyrosinase activity result is given as “significant inhibition on tyrosinase activity in a dose-dependent manner”. Besides, the “cytotoxicity (tissue viability)” value in data set [2] is given as “without significant cytotoxicity”. For the same compound, in the data set with melan-a cells, the melanosome autophagy result is “induced melanosome autophagy”. The “amount of melanin in human skin equivalents” value in data set [4] is “significantly inhibited the amount of melanin”.
